Laboratory results taken from patent US20220024921A1, “1,3,4-OXADIAZOLONE COMPOUND AND PHARMACEUTICAL” (NIPPON SHINYAKU CO., LTD., priority 2018, published 2022).

Tests used:
[1] = tested on: graft-versus-host disease model CB6F1 mice; assay: Lymphocyte proliferation inhibitory effect using graft-versus-host disease model animals (splenomegaly formation); type: in vivo; conditions: Mus musculus, 240 h, oral, twice a day for 10 days, GVHD model CB6F1 mice, read-out: Inhibition rate (%) (splenomegaly formation); for inhibition in vivo at 20 mg/kg: single dose 20 mg/kg
[2] = target: PIM3 transgenic cells (Ba/F3) (Homo sapiens, UniProt Q86V86); assay: Proliferation inhibitory effect on PIM3 transgenic cells; type: cell-based, mouse; conditions: proliferation inhibition, 72 hours, Cell Counting Kit-8, read-out: PIM3 IC50
From the text: Human PIM1, 2, and 3 genes were inserted into the multi-cloning sites of retrovirus expression vectors pMYs-IRES-GFP, respectively, to prepare gene transfer vectors. Then, each gene transfer vector was introduced into packaging cells PLAT-E derived from a human fetal kidney cell line in the logarithmic growth phase, using a transfection reagent (FuGENE6, Promega Corporation). Since the culture supernatant of PLAT-E after gene transfer contained virus particles for gene transfer, the culture supernatant was collected and used as a medium for gene transfer. The medium for gene transfer was added to a plate coated with RetroNectin, and the plate was incubated to attach the virus particles to the plate. Then, a mouse pro-B cell line Ba/F3 in the logarithmic growth phase was seeded on the plate and infected with the virus to prepare PIM1, 2, or 3 transgenic cells that proliferate in a PIM 1, 2, or 3-dependent manner. The expression of PIM1, 2, or 3 protein in each cell was confirmed by Western blotting.
Each test substance was prepared to 10 mM with dimethylsulfoxide (DMSO), and diluted with DMSO so as to have concentrations of 3000, 1000, 300, 100, 30, 10, 3, and 1 μM. Moreover, each dilution was further diluted 10-fold with distilled water to prepare a test substance solution.
PIM1, 2, 3-expressing cells were seeded on a 96-well plate, and each test substance solution prepared the next day was added such that final concentrations were 10000, 3000, 1000, 300, 100, 30, 10, 3, and 1 nM. 72 hours after the addition, 10 μL of Cell Counting Kit-8 (DOJINDO LABORATORIES) was added to each well. After incubation for 1 to 4 hours, absorbance OD450 at 450 nm was measured. In addition, absorption OD650 at 650 nm as a reference wavelength was measured.
OD450-OD650 for each condition was calculated, and then the inhibition rates when OD450-OD650 of negative control (DMSO only) and OD450-OD650 of Blank (without cells) were set to 0% and 100%, respectively, were calculated. Then, non-linear regression analysis was performed for logarithmic dose and inhibition rate using a two-parameter logistic model to estimate IC50 values.
For the compounds with the following Example numbers, in addition to the above proliferation inhibitory effect on PIM1 transgenic cells, the proliferation inhibitory effect on PIM2 transgenic cells and the proliferation inhibitory effect on PIM3 transgenic cells were calculated as IC50.

[3] = tested on: NZB/W F1 mice; assay: Inhibitory effect on systemic lupus erythematosus and lupus nephritis model animals; type: in vivo; conditions: for survival rate / onset rate of proteinuria / anti-double-stranded DNA antibody titer: NZB/W F1 mice, 15, 30 mg per 1 kg twice a day for 15 weeks; for onset rate of proteinuria: UACR>20 = proteinuria-positive; for anti-double-stranded DNA antibody titer / Anti-double-stranded DNA antibody titer (U/mL): plasma, final day of administration; for Number of proteinuria-positive individuals: UACR>20 defined as positive; for Anti-double-stranded DNA antibody titer (U/mL): median of group; for Number of dead/euthanized individuals: until the final day of administration
From the text: For the evaluation of test substances, NZB/W F1 mice (29, 30-week-aged female), which are model mice with systemic lupus erythematosus and lupus nephritis, were used. These mice are a spontaneous animal model, and an increase in autoantibodies such as anti-double-stranded DNA antibody, which is considered to be a cause of systemic lupus erythematosus, and proteinuria, which is a characteristic of lupus nephritis, are observed for the mice, and the mice are known to die from nephritis.
Urine was collected before the start of the test, and individuals with a urinary albumin concentration÷urinary creatinine concentration (UACR) value of 5 or more were excluded. Furthermore, the anti-double-stranded DNA antibody titer in blood and the body weight were measured before the start of the test, and 53 mice were grouped into 5 groups of 10 or 13 mice based on blood anti-double-stranded DNA antibody titer, age, and body weight. Since early death was expected for the vehicle-administered group, the test was conducted with 13 mice as this group.
Example 75 and Example 202 were used as test substances, and a 0.5% methyl cellulose solution which is a vehicle was used as a control. Example 75 and Example 202 were prepared into solutions of 1.5 and 3.0 mg/mL by being dissolved in a 0.5% methyl cellulose solution.
After grouping, the 0.5% methyl cellulose solution or the 1.5 or 3.0 mg/mL solution of Example 75 or Example 202 was administered to each of the mice of the 7 groups. The single dose was set to 10 mL per 1 kg of body weight, and the dose was administered twice a day. Under these conditions, the dose per time is 15, 30 mg per 1 kg of body weight. Administration was started on 29 or 30-week-aged mice, and was performed daily for 15 weeks until the age of 44 or 45 weeks.
Blood was collected from the tail vein of each of all the surviving individuals on the final day of administration. Then, the blood was centrifuged and the plasma was separated and taken. The plasma was diluted 3000-fold, and the anti-double-stranded DNA antibody titer was measured by ELISA method (Levis anti-dsDNA-mouse ELISA Kit, FUJIFILM Wako Shibayagi Corporation). Measurement and analysis were performed according to the protocol of the Kit.
All the surviving individuals on the final day of administration were bred in a mouse metabolism cage (CLEA Japan, Inc.) for 16 hours, and urine was collected from each individual. The solids were removed by centrifuging the urine and collecting the supernatant. An automatic analyzer (JCA-BM6050 BioMajesty, JEOL Ltd.) was used to measure the albumin concentration and creatinine concentration in urine after centrifugation. A urinary albumin/creatinine ratio (UACR) was calculated by dividing the albumin concentration by the creatinine concentration, and individuals with UACR>20 were defined as proteinuria-positive individuals. In addition, for almost all the individuals that died before the final day of administration, UACR>20 was confirmed in urinalysis immediately before death, and thus these individuals were treated as proteinuria-positive individuals.

[4] = single dose 15 mg/kg twice a day for 15 weeks
[5] = single dose 30 mg/kg twice a day for 15 weeks

Row | SMILES | inhibition in vivo at 10 mg/kg ([1]; single dose 10 mg/kg) [%] | inhibition in vivo at 20 mg/kg [1] [%] | GI50 [2] [nM] | survival rate [3] | onset rate of proteinuria [3] | anti-double-stranded DNA antibody titer [3] | Number of proteinuria-positive individuals [3, 4] | Anti-double-stranded DNA antibody titer (U/mL) [3, 4] [U/mL] | Number of dead/euthanized individuals [3, 4] | Number of proteinuria-positive individuals [3, 5] | Anti-double-stranded DNA antibody titer (U/mL) [3, 5] [U/mL] | Number of dead/euthanized individuals [3, 5] | inhibition in vivo at 6 mg/kg ([1]; single dose 6 mg/kg) [%]
1 | C[C@H](Nc1cc(-c2n[nH]c(=O)o2)cc(F)c1OC(F)(F)F)C1CCNCC1.Cl [Example 202, 5-[3-fluoro-5-{[(1S)-1-(piperidin-4-yl)ethyl]amino}-4-(trifluoromethoxy)phenyl]-1,3,4-oxadiazol-2(3H)-one hydrochloride] | 28.4 | 33.5 | 78 | improving the survival rate | decreasing the onset rate of proteinuria | suppressing an increase in anti-double-stranded DNA antibody titer | 1/10 | 568 | 1/10 | 1/10 | 112 | 1/10 | 
2 | C[C@H](Nc1cc(-c2n[nH]c(=O)o2)cc(F)c1C(F)(F)F)C1CCNCC1.Cl [Example 75, 5-[3-fluoro-5-{[(1S)-1-(piperidin-4-yl)ethyl]amino}-4-(trifluoromethyl)phenyl]-1,3,4-oxadiazol-2(3H)-one hydrochloride] |  | 27.1 | 120 | improving the survival rate | decreasing the onset rate of proteinuria | suppressing an increase in anti-double-stranded DNA antibody titer | 2/10 | 423 | 0/10 | 0/10 | 306 | 0/10 | 21.7
